Data as given in US20240069010A1, “TISSUE ORGANOID BIOPRINTING AND HIGH-THROUGHPUT SCREENING METHODOLOGY” (priority 2020, published 2024).
Like-named read-outs stand apart in the source and are kept apart here.

Legend:
[1] = tested on: BT-474 organoids; assay: Endpoint ATP-release assay (CellTiter-Glo) of organoid viability; format: cell-based; details: for Organoid viability by endpoint ATP assay, Viability ± SD: BT-474, 72 h of treatment, luminescence relative to 1% DMSO control; for viability at 0.1 µM / viability at 1 µM / viability at 10 µM: Homo sapiens
Procedure: All drug treatments of 3D organoids were performed in serum-free conditions in MammoCult™ medium supplemented with 1% antibiotic-antimycotic (Gibco 15240-062). A detailed protocol for the drug screening has been published previously in Phan, N. et al. supra; and Nguyen, H. T. L. & Soragni, supra. Briefly, the culture medium was fully removed three days after seeding and replaced with 100 μL of MammoCult™ medium containing the indicated treatments using an automated pipetting system (EpMotion® 96). After treatment, we transferred the organoids to the HSLCI for imaging. […] The media was aspirated from each well and replaced with 50 μL of 5 mg/mL Dispase (Thermo-Fisher) solution to digest the Matrigel. After a 25-minute incubation at 37° C., the plate was placed on an orbital shaker for 5 minutes at 80 RPM. We then added 30 μL of CellTiter-Glo® reagent (Promega), sealed the plate with film, covered the plate with foil to protect from light, shook the plate for 5 minutes at 80 RPM, and incubated at room temperature for an additional 20 minutes. We used a SpectraMax iD3 plate reader to measure luminescence. The program parameters for luminescence readings were 5 minutes of shaking prior to reading, reading all wavelengths, and integrating signal over 500 ms. Organoid viability within each well was calculated by dividing the luminescent signal from each well by the mean luminescence of the control (1% DMSO) wells. Two-tailed independent t-tests were performed to assess the statistical significance of the differences in organoid mass and cell viability. P-values less than 0.05 were deemed significant.

[2] = tested on: BT-474 organoids; assay: HSLCI mass tracking of bioprinted organoids in drug screening; format: cell-based; details: for Organoid Behavior (%) Gained Mass: mass increase >10%; for Organoid Behavior (%) Lost Mass: mass loss >10%; for Organoid Behavior (%) Stable: mass change <10%
Excerpt: Cells were bioprinted using a CELLINK BioX with a Temperature-Controlled Printhead. Gcode files were written to print the desired single-layer geometry. We wrote standardized blocks of Gcode encode the print path for the repeated geometries. MATLAB (MathWorks, Inc.) was used to integrate these standardized blocks into full Gcode files with the defined coordinates for each well. We used 8-well plates when printing the larger constructs as the depth of the well in a standard 24-well plate prohibited the use of 0.5″ length needles. Large rings were necessary to deposit a sufficient number of cells for RNA-Seq and IHC. Four rings with a diameter of 14.5 mm were printed for RNA sequencing (approximately 200,000 cells total), while four sets of concentric 14.5 mm, 12.5 mm, and 10.5 mm diameter rings were used for IHC analysis (approximately 500,000 cells total). We printed mini-squares with side length 3.9 mm for drug screening and HSLCI imaging. The mini-squares were inscribed within the circular well with sides parallel to the sides of the well plate. The open center of the constructs facilitates automatic manipulation with fluid handling equipment while the sides of the square are positioned to maximize the number of organoids imaged by HSLCI. The bioprinting process utilized the same material deposited for manually seeded organoids. A single cell suspension, aggregates or clusters in a 3:4 mixture of MammoCult™ and Matrigel® was prepared on ice. After vortexing briefly to homogenize, the mixture was transferred into a 3 mL syringe by removing the plunger and capping the opposite end. Once the plunger was replaced, the syringe was inverted, and bubbles were forced out of the tip. The material was then transferred to a room temperature 3 mL bioprinter cartridge (CELLINK) by connecting the syringe and cartridge with a double-sided female Luer lock adapter (CELLINK). Any air bubbles in the syringe were removed and the loaded cartridge was incubated in a rotating incubator (Enviro-Genie, Scientific Industries) for 30 minutes at the print temperature.
During the incubation period, the printer was sterilized with the built-in UV irradiation function and the printhead was set to the print temperature. […] The well masks were autoclaved prior to use. The masks were inserted into the well plate and pressed in contact with the glass surface. Rubber bands were used to hold the masks in place and ensure conformal contact was maintained throughout the plasma treatment. The well plates were treated with oxygen plasma in a PE-25 (Plasma Etch) for 30-90 seconds, 15 minutes prior to bioprinting. After plasma treatment, the well plate was placed in the bioprinter and Automatic Bed Levelling (ABL) was performed.
Once the incubation period ended, we attached a 0.5″ 25-gauge needle and loaded the cartridge into the pre-cooled printhead. We primed the needle by extruding a small volume of material at 15 kPa prior to calibrating the printer. Just before printing, we cleared the needle of the gelled material by extruding a small volume using 40 kPa prior to starting the print. To create constructs of the appropriate thicknesses, prints in 8-well plates were extruded at 15 kPa while prints in 96-well plates were extruded at 12-15 kPa. […] After printing, the constructs were incubated at 37° C. for at least 30 minutes to solidify the matrix and 100 μL of MammoCult™ medium was then added.
The HSLCI platform was installed inside a standard cell culture incubator. For all growth kinetics studies and drug screening, organoids were imaged in 96-well glass-bottom plates (Cellvis P96-1.5H-N) using a 40× objective (Nikon, NA 0.75). Organoids were seeded as single-cell suspensions in a 3:4 mixture of MammoCult™ and Matrigel® as described above and were grown at 37° C. and 5% CO2 in MammoCult™ medium supplemented with 1% antibiotic-antimycotic (Gibco 15240-062).

[3] = BT-474, 48 h, read-out: Comparisons of cell viability measures by ATP detection assay, Mean mass ± SD
[4] = BT-474, 72 h, read-out: Organoid viability by endpoint ATP assay, Viability ± SD

## CN[C@@H]1C[C@H]2O[C@@](C)([C@@H]1OC)n1c3ccccc3c3c4c(c5c6ccccc6n2c5c31)C(=O)NC4 [Staurosporine, staurosporine]
[1]; 1 μM
  Organoid viability by endpoint ATP assay, Viability ± SD: near-zero viability
[1]; 10 μM
  Organoid viability by endpoint ATP assay, Viability ± SD: near-zero viability
[1]; [3]
  viability at 0.1 µM: 58 ± 14%
  viability at 1 µM: 2 ± 1%
  viability at 10 µM: 1%
[1]; [4]
  viability at 0.1 µM: 58 ± 14%
  viability at 1 µM: 2 ± 1%
  viability at 10 µM: 1%
[2]; 1 μM, 6 hours of treatment
  Mean mass of BT-474 organoids, Mean mass ± SD: 1.38 ± 0.49 ng
[2]; 1 μM, 48 hours of treatment
  Mean mass of BT-474 organoids, Mean mass ± SD: 0.70 ± 0.26 ng
[2]; 1 μM, 48 hours of treatment, listed as staurosporine
  Mean mass of BT-474 organoids, Mean mass ± SD: 0.70 ± 0.26 ng
[2]; 10 μM, 6 hours of treatment
  Mean mass of BT-474 organoids, Mean mass ± SD: 1.46 ± 0.72 ng
[2]; 10 μM, 48 hours of treatment
  Mean mass of BT-474 organoids, Mean mass ± SD: 0.83 ± 0.72 ng
[2]; 10 μM, 48 hours of treatment, listed as staurosporine
  Mean mass of BT-474 organoids, Mean mass ± SD: 0.83 ± 0.72 ng
[2]; BT-474 organoids, 0.1 μM, 12 h
  Organoid Behavior (%) Gained Mass: 27.6%
  Organoid Behavior (%) Lost Mass: 1.7%
[2]; BT-474 organoids, 0.1 μM, 24 h
  Organoid Behavior (%) Stable: 50.0%
  Organoid Behavior (%) Gained Mass: 45.8%
  Organoid Behavior (%) Lost Mass: 4.2%
[2]; BT-474 organoids, 0.1 μM, 48 h
  Organoid Behavior (%) Stable: 23.4%
  Organoid Behavior (%) Gained Mass: 70.1%
  Organoid Behavior (%) Lost Mass: 6.5%
[2]; BT-474 organoids, 1 μM, 12 h
  Organoid Behavior (%) Stable: 47.6%
  Organoid Behavior (%) Gained Mass: 19.0%
[2]; BT-474 organoids, 1 μM, 12 h, listed as staurosporine
  Organoid Behavior (%) Gained Mass: 19%
[2]; BT-474 organoids, 1 μM, 24 h
  Organoid Behavior (%) Stable: 29.5%
  Organoid Behavior (%) Gained Mass: 13.6%
  Organoid Behavior (%) Lost Mass: 56.8%
[2]; BT-474 organoids, 1 μM, 48 h
  Organoid Behavior (%) Stable: 12.0%
  Organoid Behavior (%) Gained Mass: 4.0%
  Organoid Behavior (%) Lost Mass: 84.0%
[2]; BT-474 organoids, 1 μM, after 12 hours, compared to the control
  reduction in the number of organoids that increased in size: 60%
[2]; BT-474 organoids, 10 μM, 12 h
  Organoid Behavior (%) Stable: 64.3%
  Organoid Behavior (%) Gained Mass: 7.1%
  Organoid Behavior (%) Lost Mass: 28.6%
[2]; BT-474 organoids, 10 μM, 24 h
  Organoid Behavior (%) Stable: 23.9%
  Organoid Behavior (%) Gained Mass: 19.6%
  Organoid Behavior (%) Lost Mass: 56.5%
[2]; BT-474 organoids, 10 μM, 48 h
  Organoid Behavior (%) Gained Mass: 14.8%
  Organoid Behavior (%) Lost Mass: 66.7%
